Data reported in article PMC11012124, “Synthesis of Novel Triazine-Based Chalcones and 8,9-dihydro-7H-pyrimido[4,5-b][1,4]diazepines as Potential Leads in the Search of Anticancer, Antibacterial and Antifungal Agents” (International Journal of Molecular Sciences, 2024).
≈ marks a conversion by molar mass, not a printed value. Where two headings read alike, the source gives them in different places.

Experiments:
A. niger (ATCC 9029) = test: Antifungal broth microdilution (CLSI); type: cell-based; details: ATCC9029; Ani: Aspergillus niger
Description: (§1) Several of the obtained triazine derivatives were evaluated against sensitive fungal species comprising of two yeasts (Candida albicans (ATCC 10231), Cryptococcus neoformans (ATCC 32264)), three dermatophytes (Microsporum gypseum (CCC 115), Trichophyton rubrum (CCC 134-2000), Trichophyton mentagrophytes (CCC 202-2000)), and three Aspergillus fungi ((A. [NT] 26934), A. niger (ATCC 9029), and A. flavus (ATCC 9170)). […] Broth microdilution techniques were performed in 96-well microplates according to the Reference Method for Broth Dilution Antifungal Susceptibility Testing of Yeasts, document M27-A3 [86] and of Filamentous Fungi […]-A8 [87]. […] An inoculum suspension (100 μL) was added to each well (final well volume = 200 μL). One growth control well (containing medium, inoculum, and the same amount of DMSO as used for each compound) and one sterility control well (sample, medium, and sterile water instead of inoculum) were included for each fungus tested. Microtiter plates were incubated in a dark, humid chamber at 30 °C for the time necessary for each fungus. Amphotericin B, Terbinafine, Fluconazole and Itraconazole were used as a positive control. The tests were performed in triplicate.

A. flavus (ATCC 9170) = test: Antifungal broth microdilution (CLSI); type: cell-based; details: ATCC9170; Afl: Aspergillus flavus
Description: as §1

[1] = tested on: A. fumigatus (ATCC 26934); test: Antifungal broth microdilution (CLSI); type: cell-based; details: ATCC26934; Afu: Aspergillus fumigatus
Description: as §1

[2] = tested on: Trichophyton mentagrophytes (CCC 202-2000); test: Antifungal broth microdilution (CLSI); type: cell-based; details: Tm: Trichophyton mentagrophytes
Description: as §1

[3] = tested on: Microsporum gypseum (CCC 115); test: Antifungal broth microdilution (CLSI); type: cell-based; details: Nannizzia gypsea; Mg: Microsporum gypseum
Description: as §1

[4] = tested on: Cryptococcus neoformans (ATCC 32264); test: Antifungal broth microdilution (CLSI); type: cell-based; details: ATCC32264; Cn: Cryptococcus neoformans
Description: as §1

[5] = tested on: Candida albicans (ATCC 10231); test: Antifungal broth microdilution (CLSI); type: cell-based; details: ATCC10231; Ca: Candida albicans
Description: as §1

[6] = tested on: Trichophyton rubrum (CCC 134-2000); test: Antifungal broth microdilution (CLSI); type: cell-based; details: Tr: Trichophyton rubrum
Description: as §1

[7] = tested on: N. gonorrhoeae ATCC 49226; test: MIC on GC agar plates; type: cell-based, Neisseria gonorrhoeae
Description: An initial screening for bacterial inhibition was performed by the agar diffusion method. […] DMSO and TSB were included as negative controls. Gentamicin and trimethoprim sulfamethoxazole were included as a positive control for growth inhibition. Derivatives showing growth inhibition were tested at least twice before being selected for the microdilution test. For N. gonorrhoeae, the agar diffusion method was also used for screening with some modifications. […] Penicillin and tetracycline were used as controls. […] Briefly, GC agar supplemented with 1% isovitalex was prepared with increasing concentrations of the new compounds and inoculated with 10 µL of a bacterial suspension (1 × 10^4 CFU). The lowest concentration of the compound that inhibited bacterial growth was determined as the MIC. Bacterial growth was examined and verified using the oxidase test. The experiments were performed in duplicate in at least two independent assays.

[8] = Hemolytic activity, spectrophotometric; type: cell-based, human; details: human, human red blood cells (huRBC), 5% hematocrit, 200 μg/mL, 37 °C
60 cancer cell lines = test: NCI-60 one-dose screen (10 μM); type: cell-based; details: Homo sapiens; one dose of 10 μM, mean over 60 cancer cell lines; read-out: Mean Growth Percent (MGP)
Description: Additionally, the mean of the growth percentages (MGP) of each compound against all the 60 cancer cell lines is also reported, which is used as one of the selection criteria to continue with tests at five concentration doses.

[9] = tested on: M. tuberculosis ATCC 27294; test: Antitubercular broth microdilution MIC; type: cell-based; details: Mycobacterium tuberculosis; M. tuberculosis ATCC 27294 (H37Rv); read-out: Minimum inhibitory concentration (MIC)
[10] = tested on: human red blood cells (huRBC); test: Hemolytic activity, spectrophotometric; type: cell-based; details: 200 μg/mL, 24 h, 37 °C
[11] = tested on: N. gonorrhoeae ATCC 49226; details: control drugs, range in parenthesis; cited from earlier work
AChE = tested on: AChE; set-up: method as in PMID 34795867, PMID 35252706, doi:10.1016/j.molstruc.2021.132275, PMID 18811208, doi:10.1016/j.molstruc.2022.132498; details: cited from earlier work
[12] = tested on: Mycobacterium tuberculosis H37Rv; set-up: method as in PMID 34795867, PMID 35252706, doi:10.1016/j.molstruc.2021.132275, PMID 18811208, doi:10.1016/j.molstruc.2022.132498; details: cited from earlier work
RXF 393 = test: cells; details: Homo sapiens, RXF 393, 48 h
CAKI-1 = test: cells; details: Homo sapiens, CAKI-1, 48 h
MOLT-4 = test: cells; details: Homo sapiens, MOLT-4, 48 h
HCT-116 = test: cells; details: Homo sapiens, HCT-116, 48 h
S. aureus ATCC 43300 [13] = details: tetracycline; cited from earlier work
S. aureus ATCC 43300 [14] = test: Antibacterial MIC, microdilution; type: cell-based; details: Staphylococcus aureus; S. aureus ATCC 43300 (MRSA)
Galleria mellonella = test: Toxicity in the Galleria mellonella model; details: G. mellonella larvae, at the higher doses
Description: G mellonella larvae were cultivated in the laboratory and healthy, beige larvae weighing 150–200 mg, were selected for toxicity assays.

[15] = Neisseria gonorrhoeae, ATCC49226, read-out: MIC

Row | Compound | MIC (A. niger (ATCC 9029)) | MIC (A. flavus (ATCC 9170)) | MIC [1] | MIC [2] | MIC [3] | MIC [4] | MIC [5] | MIC [6] | MIC [7, 15] | hemolysis at 24 h, 200 µg/mL [8] | activity at 10 µM (60 cancer cell lines) | MIC [9] | other results
1 | COc1ccc(C2=Nc3c(N)nc(N)nc3NC(c3ccc(Oc4nc(Nc5ccc(F)cc5)nc(N(C)C)n4)c(OC)c3)C2)cc1 (centres unmarked) [29c] | > 250 µg/mL | > 250 µg/mL | > 250 µg/mL | > 250 µg/mL | 125 µg/mL (≈ 196 µM) | > 250 µg/mL | > 250 µg/mL | > 250 µg/mL | 62.5 µg/mL (≈ 98 µM) | 2.9% | 64.2% | 1.2 µg/mL (≈ 1.88 µM) | 
2 | C[C@@H]1[C@H](O)[C@@H](C)/C=C/C=C/C=C/C=C/C=C/C=C/C=C/[C@H](O[C@@H]2O[C@H](C)[C@@H](O)[C@H](N)[C@@H]2O)C[C@@H]2O[C@](O)(C[C@@H](O)C[C@@H](O)[C@H](O)CC[C@@H](O)C[C@@H](O)CC(=O)O[C@H]1C)C[C@H](O)[C@H]2C(=O)O [Amphotericin B, reference compound] | 0.5 µg/mL (≈ 0.541 µM) | 0.5 µg/mL (≈ 0.541 µM) | 0.5 µg/mL (≈ 0.541 µM) | 0.075 µg/mL (≈ 0.0812 µM) | 0.125 µg/mL (≈ 0.135 µM) | 0.25 µg/mL (≈ 0.271 µM) | 0.5 µg/mL (≈ 0.541 µM) | 0.075 µg/mL (≈ 0.0812 µM) |  |  |  |  | 
3 | COc1cc(C2CC(c3ccc(C(F)(F)F)cc3)=Nc3c(N)nc(N)nc3N2)ccc1Oc1nc(NCCO)nc(N2CCOCC2)n1 (centres unmarked) [28g] |  |  |  |  |  |  |  |  | 8 µg/mL (≈ 12 µM) |  | 99.4% |  | % Hemolysis [10]: 100%
4 | Penicillin [reference compound] |  |  |  |  |  |  |  |  |  |  |  |  | MIC range values for this strain [11]: 0.25 to 1.0 µg/mL; MIC [7]: 0.25 µg/mL
5 | CN(c1nc(Cl)nc(N2CCN(Cc3nc4ccccc4[nH]3)CC2)n1)C1CCCCC1 [compound 2] |  |  |  |  |  |  |  |  |  |  |  |  | IC50 (AChE): 44 nM
6 | COc1cc(C2CC(c3cc(OC)c(OC)c(OC)c3)=Nc3c(N)nc(N)nc3N2)ccc1Oc1nc(Nc2ccc(F)cc2)nc(N(C)C)n1 (centres unmarked) [29d] |  |  |  |  |  |  |  |  | 16.1 µg/mL (≈ 23.1 µM) | > 75% | 54.5% | 5 µg/mL (≈ 7.17 µM) | % Hemolysis [10]: 75%
7 | O=C(/C=C/c1ccc(F)cc1F)c1ccc(Nc2nc(Cl)nc(Cl)n2)cc1 [compound 3] |  |  |  |  |  |  |  |  |  |  |  |  | MIC [12]: 3.125 µg/mL (≈ 7.67 µM)
8 | COc1cc(C2CC(c3ccc(C(F)(F)F)cc3)=Nc3c(N)nc(N)nc3N2)ccc1Oc1nc(Nc2ccc(F)cc2)nc(N(C)C)n1 (centres unmarked) [29g] | > 250 µg/mL | > 250 µg/mL | > 250 µg/mL | > 250 µg/mL | 125 µg/mL (≈ 185 µM) | > 250 µg/mL | > 250 µg/mL | > 250 µg/mL | ≥ 500 µg/mL |  | 40.9% | 5 µg/mL (≈ 7.4 µM) | GI50 (RXF 393): 1220 nM; CC50 (RXF 393; read-out: LC50): 34100 nM; GI50 (CAKI-1): 1650 nM; CC50 (CAKI-1; read-out: LC50): > 100000 nM; GI50 (MOLT-4): 1710 nM; CC50 (MOLT-4; read-out: LC50): > 100000 nM; GI50 (HCT-116): 1760 nM; CC50 (HCT-116; read-out: LC50): 7560 nM
9 | COc1cc(C2CC(c3ccc(F)cc3)=Nc3c(N)nc(N)nc3N2)ccc1Oc1nc(Nc2ccc(F)cc2)nc(N(C)C)n1 (centres unmarked) [29f] | > 250 µg/mL | > 250 µg/mL | > 250 µg/mL | > 250 µg/mL | 125 µg/mL (≈ 200 µM) | > 250 µg/mL | > 250 µg/mL | > 250 µg/mL | 0.5 µg/mL (≈ 0.799 µM) | 0% | 45.2% | 2.5 µg/mL (≈ 4 µM) | 
10 | CN(C)[C@@H]1C(O)=C(C(N)=O)C(=O)[C@@]2(O)C(O)=C3C(=O)c4c(O)cccc4[C@@](C)(O)[C@H]3C[C@@H]12 [Tetracycline, reference compound] |  |  |  |  |  |  |  |  | 1 µg/mL (≈ 2.25 µM) |  |  |  | MIC range values for this strain [11]: 0.25 to 1.0 µg/mL; MIC range (S. aureus ATCC 43300 [13]): 0.05 to 0.25 µg/mL; MIC (S. aureus ATCC 43300 [14]): 0.05 µg/mL (≈ 0.113 µM)
11 | COc1cc(C2CC(c3ccc(S(=O)(=O)NCCNc4nc(N(C)C)nc(N5CCOCC5)n4)cc3)=Nc3c(N)nc(N)nc3N2)cc(OC)c1OC (centres unmarked) [30d] | > 250 µg/mL | > 250 µg/mL | > 250 µg/mL | > 250 µg/mL | > 250 µg/mL | > 250 µg/mL | > 250 µg/mL | 125 µg/mL (≈ 167 µM) | 16.1 µg/mL (≈ 21.5 µM) | 11% | 95% |  | mortality (Galleria mellonella): ≤ 25%
12 | CC(=O)c1ccc(S(=O)(=O)NCCNc2nc(N(C)C)nc(N3CCOCC3)n2)cc1 [compound 17] | > 250 µg/mL | > 250 µg/mL | > 250 µg/mL | > 250 µg/mL | > 250 µg/mL | > 250 µg/mL | > 250 µg/mL | 125 µg/mL (≈ 278 µM) |  | 1.6% | 108% |  | 
